From patent publication US20230002505A1, “TREATMENT OF THERAPY-RESISTANT HER-2 POSITIVE BREAST CANCER” (OREGON HEALTH & SCIENCE UNIVERSITY, priority 2017, published 2023)

How the values were obtained:
Format in all cases: cell-based, human
HCC-1954 cells = test: In vitro proliferation of parental HCC-1954 cells after panitumumab treatment; conditions: parental HCC-1954, HER-2 positive, trastuzumab and lapatinib resistant; blocking HER-1 function
JimT1 cells = test: In vitro proliferation of parental JimT1 cells after panitumumab treatment; conditions: parental JimT1, HER-2 positive, trastuzumab and lapatinib resistant; blocking HER-1 function
21MT1 cells = test: In vitro proliferation of parental 21MT1 cells after panitumumab treatment; conditions: parental 21MT1, HER-2 positive, trastuzumab and lapatinib resistant; blocking HER-1 function

Measured: proliferation in vitro

Panitumumab
decreased proliferation: all assays above
